Assay results taken from ChEMBL document CHEMBL1201862, “PubChem BioAssay data set” (2004).
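Values below derive from 48-hour exposures of cells grown in 96-well plates, with endpoints linearly interpolated between the two concentrations bracketing the appropriate inhibition level. At the GI50, growth is halved.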 The source made the active and inactive calls. No stated cut-off is given here; in the data, active = GI50 up to about 1.1 µM and inactive = higher.

Legend:
Test in all cases: DTP human tumour cell line panel, 48 h
SF-295 = test system: SF-295
BT-549 = test system: BT-549
CCRF-CEM = test system: CCRF-CEM
EKVX = test system: EKVX
TK-10 = test system: TK-10
U-251 = test system: U-251
MOLT-4 = test system: MOLT-4
SW-620 = test system: SW-620
SN12C = test system: SN12C
NCI-H522 = test system: NCI-H522
CAKI-1 = test system: CAKI-1
Malme-3M = test system: Malme-3M
SK-MEL-2 = test system: SK-MEL-2
OVCAR-5 = test system: OVCAR-5
PC-3 = test system: PC-3
SF-268 = test system: SF-268
LOX IMVI = test system: LOX IMVI
NCI-H23 = test system: NCI-H23
MDA-N = test system: MDA-N
SNB-19 = test system: SNB-19
A549 = test system: A549
SK-MEL-28 = test system: SK-MEL-28
T47D = test system: T47D
MDA-MB-435 = test system: MDA-MB-435
HOP-92 = test system: HOP-92
MDA-MB-231 = test system: MDA-MB-231
HOP-62 = test system: HOP-62
SK-MEL-5 = test system: SK-MEL-5
IGROV-1 = test system: IGROV-1
RPMI-8226 = test system: RPMI-8226
HCT-116 = test system: HCT-116
SNB-75 = test system: SNB-75
UACC-62 = test system: UACC-62
NCI/ADR-RES = test system: NCI/ADR-RES
SK-OV-3 = test system: SK-OV-3
KM12 = test system: KM12
Hs-578T = test system: Hs-578T
MCF7 = test system: MCF7
ACHN = test system: ACHN
HL-60 = test system: HL-60
M14 = test system: M14
NCI-H460 = test system: NCI-H460
UO-31 = test system: UO-31
HCC 2998 = test system: HCC 2998
OVCAR-4 = test system: OVCAR-4
SF-539 = test system: SF-539
OVCAR-8 = test system: OVCAR-8
HT-29 = test system: HT-29
DU-145 = test system: DU-145
HCT-15 = test system: HCT-15
COLO 205 = test system: COLO 205
NCI-H226 = test system: NCI-H226
UACC-257 = test system: UACC-257
786-0 = test system: 786-0

## CSC1C(=O)Nc2ccc3ccccc3c21 (centres undefined)
SF-295
  GI50: > 100 µM (inactive)
BT-549
  GI50: 23.8 µM (inactive)
CCRF-CEM
  GI50: 21 µM (inactive)
EKVX
  GI50: 15.8 µM (inactive)
TK-10
  GI50: 16.8 µM (inactive)
U-251
  GI50: 17.8 µM (inactive)
MOLT-4
  GI50: 28.1 µM (inactive)
SW-620
  GI50: 20.8 µM (inactive)
SN12C
  GI50: 20.6 µM (inactive)
NCI-H522
  GI50: 2.54 µM (inactive)
CAKI-1
  GI50: 19.1 µM (inactive)
Malme-3M
  GI50: 27.2 µM (inactive)
SK-MEL-2
  GI50: 27.1 µM (inactive)
OVCAR-5
  GI50: > 100 µM (inactive)
PC-3
  GI50: 16.3 µM (inactive)
SF-268
  GI50: 17.4 µM (inactive)
LOX IMVI
  GI50: 15.7 µM (inactive)
NCI-H23
  GI50: > 100 µM (inactive)
MDA-N
  GI50: 56.5 µM (inactive)
SNB-19
  GI50: 89.5 µM (inactive)
A549
  GI50: > 100 µM (inactive)
SK-MEL-28
  GI50: > 100 µM (inactive)
T47D
  GI50: 9.71 µM (inactive)
MDA-MB-435
  GI50: > 100 µM (inactive)
HOP-92
  GI50: 16.3 µM (inactive)
MDA-MB-231
  GI50: 23.2 µM (inactive)
HOP-62
  GI50: 34.3 µM (inactive)
SK-MEL-5
  GI50: 21.9 µM (inactive)
IGROV-1
  GI50: 16.6 µM (inactive)
RPMI-8226
  GI50: 3.13 µM (inactive)
HCT-116
  GI50: 15.7 µM (inactive)
SNB-75
  GI50: 22.8 µM (inactive)
UACC-62
  GI50: 17.5 µM (inactive)
NCI/ADR-RES
  GI50: 29.6 µM (inactive)
SK-OV-3
  GI50: > 100 µM (inactive)
KM12
  GI50: 18.6 µM (inactive)
Hs-578T
  GI50: 15.3 µM (inactive)
MCF7
  GI50: 38.1 µM (inactive)
ACHN
  GI50: 27.4 µM (inactive)
HL-60
  GI50: 1.54 µM (inactive)
M14
  GI50: 23.1 µM (inactive)
NCI-H460
  GI50: > 100 µM (inactive)
UO-31
  GI50: 16.1 µM (inactive)
HCC 2998
  GI50: > 100 µM (inactive)
OVCAR-4
  GI50: 20.2 µM (inactive)
SF-539
  GI50: 17.4 µM (inactive)
OVCAR-8
  GI50: 17.7 µM (inactive)
HT-29
  GI50: > 100 µM (inactive)
DU-145
  GI50: > 100 µM (inactive)
HCT-15
  GI50: 19.3 µM
COLO 205
  GI50: 22.9 µM (inactive)
NCI-H226
  GI50: 45.5 µM (inactive)
UACC-257
  GI50: 19 µM (inactive)
786-0
  GI50: 16.1 µM (inactive)
